Experimental data from the NIST ThermoML archive (doi:10.1007/s10765-015-2009-x).

Test: mn = molality of the nth substance listed, in mol/kg
Conditions: 101 kPa, Liquid, Pycnometric method

Cl.N[C@@H](CCC(=O)O)C(=O)O [L-glutamic acid hydrochloride] + O
mass density [kg/m3]
Conditions | m1 = 0.01009 | m1 = 0.02021 | m1 = 0.02997 | m1 = 0.03992 | m1 = 0.05011 | m1 = 0.06005
298.15 K | 1000 | 1000.9 | 1001.6 | 1002.3 | 1002.9 | 1003.6
303.15 K | 998.9 | 999.9 | 1000.6 | 1001.2 | 1001.8 | 1002.4
308.15 K | 997.6 | 998.7 | 999.4 | 1000 | 1000.6 | 1001.1
313.15 K | 996.1 | 997.3 | 998 | 998.6 | 999.2 | 999.8
